# From US20230391730A1, “INHIBITORS OF THE BROMODOMAIN PHD FINGER TRANSCRIPTION FACTOR (BPTF) AS ANTI-CANCER AGENTS” (Regents of the University of Minnesota, priority 2020, published 2023)
# Entries after “also recorded” stand apart in the source; their conditions may differ.
# Key:
# [1] = system: 4T1 cells; test: Inhibitor toxicity in 4T1 cells (MTS assay); format: cell-based, mouse; conditions: inhibitor alone
# Experimental: (§1) Cell culture methods. 4T1 cells were grown to a confluency of 50-60% using media containing DMEM with 10% fetal bovine serum (FES), 2 mM glutamine and penicillin-streptomycin. 4T1 cells with snRNA-mediated BPTF knockdown (KD) were prepared as described previously. For NURF inhibitor toxicity study, 4000 cells/well were seeded in a 96-well plate and allowed to adhere overnight. The next day, 10 different dilutions of inhibitors were prepared starting with a highest concentration of 1.0 mM and further serially diluted 10 times to get the lowest concentration of 1.95 μM. Cells were treated with the inhibitors in complete media for 4 days. Thereafter, the MTS reagent was prepared using the CellTitre 96 aqueous MTS reagent (Promega, Cat #G1111) and phenazine methosulphate (Sigma, Cat #P9625). The MTS assay was performed as per manufacturer's protocol and the absorbance was recorded at a wavelength of 490 nm. Fraction cell survival was calculated using untreated control cells to indicate complete survival (1.0) and blank solutions as 0.0 survival. The data was derived from three independent experiments (N=3) and fraction survival was plotted as mean fraction survival±SEM using GraphPad Prism software. […] Fraction survival was measured and calculated by MIS assay as mentioned above.
# [2] = system: 4T1 cells with shRNA-mediated BPTF knockdown; test: Inhibitors with doxorubicin in BPTF knockdown 4T1 cells; format: cell-based, mouse
# Experimental: as §1
# [3] = system: 4T1 cells; test: Combination with doxorubicin in 4T1 cells (MTS assay); format: cell-based, mouse; conditions: for sensitization of 4T1 cells to doxorubicin: 50 nM doxorubicin
# Experimental: Cell culture methods. 4T1 cells were grown to a confluency of 50-60% using media containing DMEM with 10% fetal bovine serum (FES), 2 mM glutamine and penicillin-streptomycin. 4T1 cells with snRNA-mediated BPTF knockdown (KD) were prepared as described previously. For NURF inhibitor toxicity study, 4000 cells/well were seeded in a 96-well plate and allowed to adhere overnight. The next day, 10 different dilutions of inhibitors were prepared starting with a highest concentration of 1.0 mM and further serially diluted 10 times to get the lowest concentration of 1.95 μM. Cells were treated with the inhibitors in complete media for 4 days. Thereafter, the MTS reagent was prepared using the CellTitre 96 aqueous MTS reagent (Promega, Cat #G1111) and phenazine methosulphate (Sigma, Cat #P9625). The MTS assay was performed as per manufacturer's protocol and the absorbance was recorded at a wavelength of 490 nm. Fraction cell survival was calculated using untreated control cells to indicate complete survival (1.0) and blank solutions as 0.0 survival. The data was derived from three independent experiments (N=3) and fraction survival was plotted as mean fraction survival±SEM using GraphPad Prism software. For checking the toxicity on wildtype and BPTF knockdown cells, three doses were selected for each inhibitor based on theft toxicity curves and treated for 4 days alone or in combination with 50 nM doxorubicin. Fraction survival was measured and calculated by MIS assay as mentioned above.
# [4] = system: Sfn; test: RT-qPCR of BPTF regulated genes in Eph4 cells, Sfn; format: cell-based, murine; conditions: 5 μM, 24 h, relative to DMSO
# Experimental: qPCR methods. Eph4 cells were treated for 24 h and harvested in trizol. RNA extraction was carried out via chloroform extractions. cDNA creation was completed via SuperScript III cDNA creation kit (Invitrogen, #12574026). All qpcrs are normalized to EPH4 DMSO and the house keeping gene beta actin. Bars represent 2 biological replicates and 3 technical replicates. All statistical analysis are student's t-test carried out on GraphPad. Reactions were carried out on the Quantstudio 6 platform using Sybr Green PCR Master Mix (Applied Biosystems, #4309155) Statistically significant differences for cell line treatment groups were considered with a one-way Anova p-value lower than 0.05 (p<0.05).
# It's been previously shown that BPTF inhibition was associated with alteration to lineage commitment and stem cell maintenance. Loss of BPTF expression in a mixed population of Krt5-expressing mammary stem cells induced differentiation, a process that was accompanied by changes to chromatin accessibility and altered gene expression activation. The effects of the BPTF inhibitors described herein were investigated in mammary luminal cells.
# [5] = biological target: T1, BPTF bromodomain (Homo sapiens, UniProt Q12830); test: BPTF AlphaScreen competitive inhibition assay; format: binding
# T1 construct: 30 nM for His9-tagged BPTF bromodomain and 50 nM for the biotinylated peptide were used; made in house
# Experimental: (§3) General Procedure for AlphaScreen Assay.^36 Unlabeled His9-tagged BPTF and BRD4 D1 were expressed and purified as described previously.^36 The AlphaScreen assay procedures for BPTF and BRD4 bromodomains were adapted from the manufacturers protocol (PerkinElmer, USA). […] The biotinylated Histone H4 KAc5,8,12,16 peptide was purchased from EpiCypher, with the sequence:
# (§4) All reagents were diluted in the assay buffer (50 mM HEPES-Na^+ (ChemImpex), 100 mM NaCl (SigmaAldrich), 0.05% CHAPS (RPI), 0.1% BSA (SigmaAldrich), pH 7.4). The final assay concentrations (after the addition of all assay components) of 30 nM for His9-tagged BPTF bromodomain and 50 nM for the biotinylated peptide were used. […] The plate was sealed and kept at room temperature for 30 min, followed by the addition of 5 μL of the biotinylated peptide. 5 μL of nickel chelate acceptor beads was added to each well under low light conditions (<100 lux), to a final concentration of 20 μg/mL, and the plate was incubated at room temperature in the dark for 30 minutes. This was followed by the addition of 5 μL (20 μg/mL final concentration) of streptavidin donor beads in low light conditions. After incubation for 30 min in the dark, the plate was read in AlphaScreen mode using a PerkinElmer EnSpire plate reader. […] IC50 values were calculated in GraphPad Prism 5 using sigmoidal 4-parameter logistic (4PL) curve
# [6] = biological target: PCAF (Homo sapiens, UniProt Q92831); conditions: previously reported; cited from earlier work
# Target sequence in this assay (Q92831 whole entry): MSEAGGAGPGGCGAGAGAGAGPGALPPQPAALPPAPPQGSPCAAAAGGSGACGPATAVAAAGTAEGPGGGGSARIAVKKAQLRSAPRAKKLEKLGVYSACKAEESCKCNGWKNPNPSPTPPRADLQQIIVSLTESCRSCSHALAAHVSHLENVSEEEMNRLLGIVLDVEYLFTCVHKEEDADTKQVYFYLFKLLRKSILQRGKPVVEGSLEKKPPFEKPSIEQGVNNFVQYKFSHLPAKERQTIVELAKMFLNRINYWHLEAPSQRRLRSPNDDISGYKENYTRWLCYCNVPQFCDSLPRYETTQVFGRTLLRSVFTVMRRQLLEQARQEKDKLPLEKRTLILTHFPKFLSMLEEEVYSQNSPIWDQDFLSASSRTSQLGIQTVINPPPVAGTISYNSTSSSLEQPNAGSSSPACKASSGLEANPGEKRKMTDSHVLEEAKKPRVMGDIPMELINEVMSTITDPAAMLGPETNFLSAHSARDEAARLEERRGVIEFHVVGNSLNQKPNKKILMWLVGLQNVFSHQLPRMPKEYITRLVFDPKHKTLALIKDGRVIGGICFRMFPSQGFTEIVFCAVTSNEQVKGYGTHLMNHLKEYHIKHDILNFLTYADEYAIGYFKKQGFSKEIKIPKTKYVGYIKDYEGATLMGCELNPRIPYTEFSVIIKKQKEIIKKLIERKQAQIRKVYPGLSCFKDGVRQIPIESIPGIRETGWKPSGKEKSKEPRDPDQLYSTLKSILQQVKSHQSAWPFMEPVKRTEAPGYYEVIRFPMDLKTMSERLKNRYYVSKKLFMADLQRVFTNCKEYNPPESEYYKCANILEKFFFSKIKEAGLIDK
# [7] = biological target: T2, BRD9 (Homo sapiens, UniProt Q9H8M2); conditions: previously reported; cited from earlier work
# T2 sequence (Q9H8M2 1-597): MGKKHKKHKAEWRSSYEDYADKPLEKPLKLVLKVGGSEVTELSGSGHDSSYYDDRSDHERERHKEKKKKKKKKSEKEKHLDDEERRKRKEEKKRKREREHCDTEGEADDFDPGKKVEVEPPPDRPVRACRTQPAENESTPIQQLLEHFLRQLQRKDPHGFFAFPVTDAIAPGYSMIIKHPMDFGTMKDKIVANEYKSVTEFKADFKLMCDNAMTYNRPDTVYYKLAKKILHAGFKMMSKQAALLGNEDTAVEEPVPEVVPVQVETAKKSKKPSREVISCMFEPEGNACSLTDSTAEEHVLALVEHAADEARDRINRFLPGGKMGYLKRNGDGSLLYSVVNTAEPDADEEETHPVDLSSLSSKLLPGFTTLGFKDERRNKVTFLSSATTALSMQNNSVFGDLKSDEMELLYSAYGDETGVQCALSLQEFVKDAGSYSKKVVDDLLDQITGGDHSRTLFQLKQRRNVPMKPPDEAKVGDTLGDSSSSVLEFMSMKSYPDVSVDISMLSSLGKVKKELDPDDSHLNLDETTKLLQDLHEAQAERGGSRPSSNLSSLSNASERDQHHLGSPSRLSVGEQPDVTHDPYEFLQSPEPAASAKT
# [8] = biological target: T3, CECR2 (Homo sapiens, UniProt Q9BXF3); test: PrOF NMR titration, 5FW-CECR2; format: binding; set-up: three class I bromodomains, BPTF, PCAF, CECR2 and one class II bromodomain, BRD4(1) were fluorine-labelled; made in house; conditions: 5FW-labeled protein
# Target sequence in this assay (Q9BXF3 434-538): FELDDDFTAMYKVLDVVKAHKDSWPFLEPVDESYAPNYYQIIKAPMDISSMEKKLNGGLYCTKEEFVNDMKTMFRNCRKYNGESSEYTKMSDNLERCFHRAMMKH
# Experimental: (§5) Protein-Observed Fluorine (PrOF) NMR. […] 40-50 μM of protein in 50 mM TRIS, 100 mM NaCl, and pH 7.4 was diluted by adding 25 μL of D2O and 2 μL of 0.1% TFA for NMR locking and referencing purposes, respectively. […] Ligands were titrated and the change in chemical shift relative to the control sample was plotted as a function of ligand concentration to generate binding isotherms. The data was processed in Mestrenova and isotherms were fit using GraphPad Prism with the equation below. Δδobs is the change in chemical shift, [L] is the total ligand concentration, and [P] is the total protein concentration:
# (§6) The tryptophan residue in the WPF shelf of three class I bromodomains, BPTF, PCAF, CECR2 and one class II bromodomain, BRD4(1) were fluorine-labelled (FIG. 4A) and the chemical shift perturbation on titrating in BZ1 was observed.
# [9] = biological target: T4, BRD4(1) (Homo sapiens, UniProt O60885); test: PrOF NMR titration, 5FW-BRD4(1); format: binding; set-up: three class I bromodomains, BPTF, PCAF, CECR2 and one class II bromodomain, BRD4(1) were fluorine-labelled; made in house; conditions: 5FW-labeled protein
# Experimental: as §5, §6
# [10] = biological target: T5, PCAF (Homo sapiens, UniProt Q92831); test: PrOF NMR titration, 5FW-PCAF; format: binding; conditions: 5FW-labeled protein
# T5 construct: three class I bromodomains, BPTF, PCAF, CECR2 and one class II bromodomain, BRD4(1) were fluorine-labelled; made in house
# T5 sequence (Q92831 723-827): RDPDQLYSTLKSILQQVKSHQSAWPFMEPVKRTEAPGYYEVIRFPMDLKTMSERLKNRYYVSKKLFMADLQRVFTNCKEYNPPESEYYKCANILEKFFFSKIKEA
# Experimental: as §5, §6
# [11] = biological target: T6, GCN5L2 (Homo sapiens, UniProt Q92830); test: BROMOscan, GCN5L2; format: binding; conditions: BROMOscan one-point measurement at 140 nM
# T6 construct: off-target class I (PCAF, GCN5L2, CECR2,) and class IV (BRD7, BRD9) bromodomains and BRD4(1); purchased
# T6 sequence (Q92830 728-832 limits assumed): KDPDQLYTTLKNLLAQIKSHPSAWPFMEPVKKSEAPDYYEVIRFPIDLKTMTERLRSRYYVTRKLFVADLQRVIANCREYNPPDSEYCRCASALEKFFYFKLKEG
# From the text: (§2) Based on the preliminary assessment of BPTF selectivity and affinity of BZ1 by PrOF NMR and AlphaScreen competition assays, the ligand was characterized using a commercial BROMOscan assay. […]. Given the low concentration of ligand and protein used, AlphaScreen can be used to estimate K values as was previously the case for characterizing BRD4-ligand interactions, however the assay for BPTF may slightly underestimate the affinity. […] […]. Recently reported pyridazinone-based inhibitors also bind to these proteins and BRD9 was reported as the closest off-target for TP-238. These studies supported good on target-BPTF inhibition, and identified several off-targets bromodomains for a more quantitative selectivity analysis.
# [12] = biological target: T3, CECR2; test: BROMOscan, CECR2; format: binding; set-up: off-target class I (PCAF, GCN5L2, CECR2,) and class IV (BRD7, BRD9) bromodomains and BRD4(1); purchased; conditions: BROMOscan one-point measurement at 140 nM
# From the text: as §2
# Target sequence in this assay (Q9BXF3 434-538 limits assumed): as the sequence (Q9BXF3 434-538) above
# [13] = format: physicochemical
# Experimental: UV-Vis Methods. Compounds were diluted in DMSO at a top concentration of 100 mM. 2-fold serial dilutions in DMSO where performed followed by 1000-fold dilution into phosphate saline buffer (PBS) to get a final top concentration of 100 μM in 0.1% DMSO for each compound. UV-Vis measurements at 254 nm were taken on a Biomate 3S Spectrophotometer.
# [14] = system: Eph4 cells; conditions: 5 μM
# Experimental: Cytotoxicity experiments with Eph4 cells. […] Media containing each condition were changed every 12 hours. […] Cells were also stained with Live/Dead Violet (Thermo Scientific, #L34964) in accordance to manufacturers specifications. All flow was performed on a Macsquant 10 (Miltenyl Biotec) and analyzed on FlowJo (TreeStar/BD).
# [15] = biological target: T7, PCAF (Homo sapiens, UniProt Q92831); test: BROMOscan, PCAF; format: binding
# T7 construct: off-target class I (PCAF, GCN5L2, CECR2,) and class IV (BRD7, BRD9) bromodomains and BRD4(1); purchased
# T7 sequence (Q92831 723-827 limits assumed): T5 sequence (Q92831 723-827)
# Experimental: Given that these measurements were only estimates of affinity, a full titration was carried out for five additional bromodomains (FIG. 5B).
# [16] = biological target: T8, BPTF (Homo sapiens, UniProt Q12830); test: BROMOscan, BPTF; format: binding
# T8 construct: Kd values for BZ1 with BPTF and off-target class I (PCAF, GCN5L2, CECR2,) and class IV (BRD7, BRD9) bromodomains; purchased
# [17] = biological target: T4, BRD4(1); test: BRD4(1) AlphaScreen competitive inhibition assay; format: binding; set-up: Unlabeled His9-tagged BPTF and BRD4 D1 were expressed and purified as described previously; made in house
# Experimental: as §3, §4
# [18] = disclosed by the structural genomics consortium; cited from earlier work
# [19] = biological target: T3, CECR2; conditions: disclosed by the structural genomics consortium; cited from earlier work
# Target sequence in this assay (Q9BXF3 whole entry): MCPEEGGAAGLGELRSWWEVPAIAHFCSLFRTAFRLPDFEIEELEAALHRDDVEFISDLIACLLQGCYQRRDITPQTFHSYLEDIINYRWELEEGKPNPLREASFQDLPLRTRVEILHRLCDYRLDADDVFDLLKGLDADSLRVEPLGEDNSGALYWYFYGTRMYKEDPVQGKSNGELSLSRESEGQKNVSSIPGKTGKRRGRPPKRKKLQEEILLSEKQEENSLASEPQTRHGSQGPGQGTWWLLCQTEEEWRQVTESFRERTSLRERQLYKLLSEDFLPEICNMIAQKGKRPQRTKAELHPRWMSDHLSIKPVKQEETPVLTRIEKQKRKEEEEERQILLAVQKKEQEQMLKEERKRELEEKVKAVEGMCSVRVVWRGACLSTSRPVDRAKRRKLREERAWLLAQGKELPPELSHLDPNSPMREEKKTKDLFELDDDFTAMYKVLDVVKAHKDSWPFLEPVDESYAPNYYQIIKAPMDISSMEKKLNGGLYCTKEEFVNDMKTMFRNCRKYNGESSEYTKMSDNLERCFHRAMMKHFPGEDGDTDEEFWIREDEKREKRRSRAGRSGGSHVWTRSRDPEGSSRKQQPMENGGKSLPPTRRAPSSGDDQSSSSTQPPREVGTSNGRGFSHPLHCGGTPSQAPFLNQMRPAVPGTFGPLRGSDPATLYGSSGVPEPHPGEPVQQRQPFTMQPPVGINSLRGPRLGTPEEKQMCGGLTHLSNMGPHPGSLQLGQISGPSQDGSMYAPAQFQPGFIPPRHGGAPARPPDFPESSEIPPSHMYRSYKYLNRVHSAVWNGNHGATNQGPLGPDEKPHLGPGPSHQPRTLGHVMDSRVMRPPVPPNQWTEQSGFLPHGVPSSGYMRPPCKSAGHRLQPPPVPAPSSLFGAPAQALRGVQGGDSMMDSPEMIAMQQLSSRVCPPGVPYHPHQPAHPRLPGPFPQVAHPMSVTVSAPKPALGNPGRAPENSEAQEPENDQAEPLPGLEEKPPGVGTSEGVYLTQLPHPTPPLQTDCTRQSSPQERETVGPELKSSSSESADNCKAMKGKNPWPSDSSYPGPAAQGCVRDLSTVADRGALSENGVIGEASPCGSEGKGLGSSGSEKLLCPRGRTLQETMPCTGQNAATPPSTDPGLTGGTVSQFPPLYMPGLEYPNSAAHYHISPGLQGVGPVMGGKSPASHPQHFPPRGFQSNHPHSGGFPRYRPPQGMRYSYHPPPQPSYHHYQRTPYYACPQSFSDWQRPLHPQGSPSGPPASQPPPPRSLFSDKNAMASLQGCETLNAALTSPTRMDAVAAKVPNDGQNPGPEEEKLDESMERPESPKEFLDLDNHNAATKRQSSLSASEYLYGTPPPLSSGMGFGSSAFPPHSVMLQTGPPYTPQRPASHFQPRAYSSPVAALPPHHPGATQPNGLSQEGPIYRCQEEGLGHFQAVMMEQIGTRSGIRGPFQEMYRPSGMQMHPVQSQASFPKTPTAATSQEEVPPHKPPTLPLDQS
compound,measurement,setting,value
"COC(=O)c1cccc(NC(=O)N[C@H]2CCN(c3ccnc(Nc4ccc(F)cc4)n3)C2)c1 [AU1, reference compound]",concentration at which toxicity starts,[1],above 16 μM
same,further toxicity in BPTF knockdown cells,[2],Additional toxicity was observed
same,sensitization of 4T1 cells to doxorubicin,[3],synergize with chemotherapy drug doxorubicin
same,Sfn mRNA level,[4],upregulated Sfn but did not reach a high enough level of statistical significance
"Cn1ncc(Nc2ccccc2)c(Cl)c1=O [Compound 6, 4-chloro-2-methyl-5-(phenylamino)pyridazin-3(2H)-one]",improvement in affinity compared to previous aliphatic amine analogues,[5],10 fold
same,affinity for PCAF,[6],10 µM
same,affinity for BRD9,[7],2.5 µM
"Cn1ncc(Nc2ccc(CCN)cc2)c(Cl)c1=O [Compound 18, 5-((4-(2-aminoethyl)phenyl)amino)-4-chloro-2-methylpyridazin-3(2H)-one]",chemical exchange regime with CECR2,[8],intermediate chemical exchange
same,chemical exchange regime with BRD4(1),[9],fast-intermediate exchange
same,chemical exchange regime with PCAF,[10],slow exchange regime stoichiometric titration
same,inhibition of GCN5L2,[11],lower levels of inhibition
same,inhibition of CECR2,[12],lower levels of inhibition
same,solubility,[13],≥ 100 µM
same,sensitization of 4T1 cells to doxorubicin,[3]; listed as BZ1,synergize with chemotherapy drug doxorubicin; also recorded: sensitized 4T1 cells to doxorubicin
"CN(C)CCc1ccc(Nc2cnn(C)c(=O)c2Cl)cc1 [Compound 19, 4-chloro-5-((4-(2-(dimethylamino)ethyl)phenyl)amino)-2-methylpyridazin-3(2H)-one]",caspase activation,[14],lack of caspase activation
same,solubility,[13],≥ 100 µM
same,sensitization of 4T1 cells to doxorubicin,[3],synergize with chemotherapy drug doxorubicin; also recorded: sensitized 4T1 cells to doxorubicin
same,less effective than BZ1,[3]; dose dependence experiment with doxorubicin,2-4 fold
same,Sfn mRNA level,[4],statistically significant increase
"CN(C)CCc1ccc(Nc2c(Cl)cnn(C)c2=O)cc1 [Compound 20, 5-chloro-4-((4-(2-(dimethylamino)ethyl)phenyl)amino)-2-methylpyridazin-3(2H)-one]",IC50,[5],10 µM
same,weaker affinity than 18,[5],140 fold
same,L.E. (ligand efficiency),[5]; from BPTF AlphaScreen,0.32
same,solubility,[13],≥ 100 µM
same,sensitization of 4T1 cells to doxorubicin,[3],did not
same,Sfn mRNA level,[4],not significantly affected
"C#CCn1ncc(Nc2ccc(CN)cc2)c(Cl)c1=O [Compound 24, 5-((4-(aminomethyl)phenyl)amino)-4-chloro-2-(prop-2-yn-1-yl)pyridazin-3(2H)-one]",IC50,[5],0.38 µM
same,Kd,[15],0.23 µM
same,Kd,[16],0.2 µM
same,IC50,[17],71 µM
Cc1c(Nc2ccc(S(=O)(=O)N3CCN(C)CC3)cc2F)nc2ccc(-c3cnn(C4CC4)c3)cn2c1=O [NVS-BPTF-1],solubility and ADME properties,[18],poor solubility and ADME properties
CN(C)CCCOc1ccc(-c2cc(NCCCn3cccn3)nc(S(C)(=O)=O)n2)cc1 [TP-238],higher affinity for CECR2 over BPTF,[19],12 fold
